Data taken from patent US20240400577A1, “MODULATORS OF PROTEIN KINASES” (VIBLIOME THERAPEUTICS, LLC, priority 2021, published 2024).

What was measured:
PLK4 = target: T1, PLK4 (Homo sapiens, UniProt O00444); assay: Kinase panel enzymatic inhibition assay (Nanosyn); format: biochemical; conditions: ATP at Km; 30-minute pre-incubation; read-out: kinase inhibition in terms of IC50, PLK4
T1 construct: Nanosyn (contract laboratory that ran the panel)
T1 sequence (O00444 1-970): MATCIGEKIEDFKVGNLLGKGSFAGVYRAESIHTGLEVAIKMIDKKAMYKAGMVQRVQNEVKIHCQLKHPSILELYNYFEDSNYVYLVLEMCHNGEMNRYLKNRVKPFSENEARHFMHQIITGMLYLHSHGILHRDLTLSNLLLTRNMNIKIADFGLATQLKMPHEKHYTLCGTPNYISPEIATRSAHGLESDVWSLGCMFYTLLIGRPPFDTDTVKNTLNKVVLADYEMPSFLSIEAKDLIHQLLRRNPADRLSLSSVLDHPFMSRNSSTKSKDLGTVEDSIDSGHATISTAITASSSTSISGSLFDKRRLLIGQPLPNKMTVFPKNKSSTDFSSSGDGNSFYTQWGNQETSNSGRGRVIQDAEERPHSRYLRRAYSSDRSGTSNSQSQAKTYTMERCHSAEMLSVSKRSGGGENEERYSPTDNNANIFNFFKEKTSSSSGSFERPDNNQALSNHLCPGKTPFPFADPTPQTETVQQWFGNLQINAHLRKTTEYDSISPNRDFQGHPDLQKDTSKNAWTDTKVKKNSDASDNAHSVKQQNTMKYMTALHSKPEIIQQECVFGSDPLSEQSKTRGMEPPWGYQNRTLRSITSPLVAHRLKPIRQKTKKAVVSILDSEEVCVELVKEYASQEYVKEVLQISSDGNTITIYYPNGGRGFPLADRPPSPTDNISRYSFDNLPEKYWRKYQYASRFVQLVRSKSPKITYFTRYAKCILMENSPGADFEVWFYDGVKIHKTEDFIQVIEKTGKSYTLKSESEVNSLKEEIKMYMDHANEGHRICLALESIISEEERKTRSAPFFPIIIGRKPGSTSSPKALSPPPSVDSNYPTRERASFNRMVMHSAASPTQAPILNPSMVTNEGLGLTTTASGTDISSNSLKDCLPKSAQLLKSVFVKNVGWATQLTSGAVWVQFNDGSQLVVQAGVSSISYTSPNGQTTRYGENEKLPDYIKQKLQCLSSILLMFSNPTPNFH
Procedure, shortened: (§1)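 Enzymatic inhibition measured within a panel of at least 300 kinases, using a validated format such as Caliper LabChip mobility shift, ADP detection or time-resolved fluorescence. Compounds tested at 5 μM with ATP at each kinase's Km, after a 30-minute pre-incubation. Values given as percent inhibition or IC50.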

JAK3 = target: T2, JAK3 (Homo sapiens, UniProt P52333); assay: Kinase panel enzymatic inhibition assay (Nanosyn); format: biochemical; conditions: ATP at Km; 30-minute pre-incubation; read-out: kinase inhibition in terms of IC50, JAK3
T2 construct: Nanosyn (contract laboratory that ran the panel)
T2 sequence (P52333 1-1124): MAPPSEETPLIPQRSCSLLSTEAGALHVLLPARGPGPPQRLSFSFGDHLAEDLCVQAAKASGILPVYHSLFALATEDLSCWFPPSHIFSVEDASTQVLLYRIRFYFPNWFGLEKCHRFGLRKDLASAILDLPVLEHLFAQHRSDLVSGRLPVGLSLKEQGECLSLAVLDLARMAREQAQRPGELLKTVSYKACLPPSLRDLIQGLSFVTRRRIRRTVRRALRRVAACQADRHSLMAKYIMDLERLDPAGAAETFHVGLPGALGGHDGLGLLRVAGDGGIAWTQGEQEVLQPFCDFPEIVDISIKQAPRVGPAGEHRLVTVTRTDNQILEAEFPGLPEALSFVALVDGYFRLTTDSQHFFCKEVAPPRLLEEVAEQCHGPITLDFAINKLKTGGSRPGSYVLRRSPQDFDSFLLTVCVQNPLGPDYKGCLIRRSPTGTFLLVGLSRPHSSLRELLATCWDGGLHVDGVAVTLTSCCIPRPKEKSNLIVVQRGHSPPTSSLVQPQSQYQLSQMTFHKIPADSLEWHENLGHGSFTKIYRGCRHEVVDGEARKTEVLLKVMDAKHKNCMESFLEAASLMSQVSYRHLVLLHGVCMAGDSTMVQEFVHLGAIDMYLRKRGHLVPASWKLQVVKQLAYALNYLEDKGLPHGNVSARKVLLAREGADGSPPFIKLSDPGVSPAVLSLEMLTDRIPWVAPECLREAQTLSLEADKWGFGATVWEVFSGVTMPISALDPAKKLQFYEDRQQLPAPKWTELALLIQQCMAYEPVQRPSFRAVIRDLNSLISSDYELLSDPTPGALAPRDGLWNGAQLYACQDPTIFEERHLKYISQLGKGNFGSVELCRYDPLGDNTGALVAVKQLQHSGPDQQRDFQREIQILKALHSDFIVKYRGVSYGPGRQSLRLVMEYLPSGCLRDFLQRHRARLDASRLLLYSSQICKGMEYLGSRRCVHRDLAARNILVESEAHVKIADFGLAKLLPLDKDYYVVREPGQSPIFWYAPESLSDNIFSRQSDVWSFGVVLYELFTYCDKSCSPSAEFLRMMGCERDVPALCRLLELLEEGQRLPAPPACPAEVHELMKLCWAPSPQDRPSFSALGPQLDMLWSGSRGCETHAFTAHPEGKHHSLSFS
Procedure, shortened: as §1

| IC50 (PLK4) [µM] | IC50 (JAK3) [µM] | SMILES |
| --- | --- | --- |
| 1 to 10 | ≥ 10 | COc1cc2nccc(Oc3ccc(NC(=O)c4cc(S(C)(=O)=O)n(-c5ccc(F)cc5)n4)c(F)c3)c2cc1OC [Ex71, N-(4-((6,7-dimethoxyquinolin-4-yl)oxy)-2-fluorophenyl)-1-(4-fluorophenyl)-5-(methylsulfonyl)-1H-pyrazole-3-carboxamide] |
| 0.5 to 1 | ≥ 10 | COc1cc2nccc(Oc3ccc(NC(=O)c4cc(S(C)(=O)=O)n(-c5ccc(F)cc5)n4)cc3)c2cc1OC [Ex72, N-(4-((6,7-dimethoxyquinolin-4-yl)oxy)phenyl)-1-(4-fluorophenyl)-5-(methylsulfonyl)-1H-pyrazole-3-carboxamide] |
| < 0.5 | ≥ 10 | COc1cc2nccc(Oc3ccc(NC(=O)c4cc(S(C)(=O)=O)n(-c5ccc(F)cc5)n4)cc3F)c2cc1OC [Ex73, N-(4-((6,7-dimethoxyquinolin-4-yl)oxy)-3-fluorophenyl)-1-(4-fluorophenyl)-5-(methylsulfonyl)-1H-pyrazole-3-carboxamide] |
